Data reported in ChEMBL document CHEMBL3992518, “Peptide Macrocycle Inhibitor of Coagulation Factor XII with Subnanomolar Affinity and High Target Selectivity” (J Med Chem, 2017).
The source made the active and inactive calls. No cut-off for these calls is given here. *1 amine or outer side, *2 acyl side, *3 side chain or, on linkers, in order; H or OH if unused. Where a SMILES comes first, the peptide text is derived from it. Bridges are numbered along the chain shown (N, C = ends). TATA = O=C(CC[*:1])N1CN(C(=O)CC[*:2])CN(C(=O)CC[*:3])C1

Experiments:
[1] = biological target: T1, Coagulation factor XII (Homo sapiens, UniProt P00748); assay: Inhibition of human beta factor 12a using fluorogenic substrate Boc-Gln-Gly-Arg-AMC preincubated for 10 mins followed by addition of substrate measured every min for 30 mins
T1 sequence (P00748 whole entry): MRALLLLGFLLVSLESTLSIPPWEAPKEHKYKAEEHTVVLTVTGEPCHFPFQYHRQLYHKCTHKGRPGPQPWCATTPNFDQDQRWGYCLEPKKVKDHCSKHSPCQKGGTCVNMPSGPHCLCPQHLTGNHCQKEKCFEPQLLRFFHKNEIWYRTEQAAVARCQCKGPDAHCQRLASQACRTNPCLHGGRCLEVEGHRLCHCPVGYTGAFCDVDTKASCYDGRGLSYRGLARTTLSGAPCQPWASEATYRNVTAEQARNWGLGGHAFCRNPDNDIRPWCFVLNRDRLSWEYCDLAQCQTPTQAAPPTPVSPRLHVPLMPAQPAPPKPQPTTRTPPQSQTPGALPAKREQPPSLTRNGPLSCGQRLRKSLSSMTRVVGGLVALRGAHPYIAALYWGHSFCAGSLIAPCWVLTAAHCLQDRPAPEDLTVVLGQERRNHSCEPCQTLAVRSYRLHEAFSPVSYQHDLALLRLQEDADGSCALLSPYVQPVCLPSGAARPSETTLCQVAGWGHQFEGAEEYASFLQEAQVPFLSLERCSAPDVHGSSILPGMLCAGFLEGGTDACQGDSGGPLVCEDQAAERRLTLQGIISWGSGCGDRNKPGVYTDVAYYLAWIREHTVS

[2] = Half life in human citrated plasma at 10 uM by mass spectrophotometric analysis; assay type: ADME, cell-free
[3] = organism: Homo sapiens; assay: Inhibition of human trypsin at 40 uM using fluorogenic substrate Z-Gly-Gly-Arg-AMC
[4] = biological target: Plasma kallikrein (Homo sapiens, UniProt P03952); assay: Inhibition of human plasma kallikrein at 40 uM using fluorogenic substrate Z-Phe-Arg-AMC
Sequence of Plasma kallikrein (P03952 20-390 limits assumed): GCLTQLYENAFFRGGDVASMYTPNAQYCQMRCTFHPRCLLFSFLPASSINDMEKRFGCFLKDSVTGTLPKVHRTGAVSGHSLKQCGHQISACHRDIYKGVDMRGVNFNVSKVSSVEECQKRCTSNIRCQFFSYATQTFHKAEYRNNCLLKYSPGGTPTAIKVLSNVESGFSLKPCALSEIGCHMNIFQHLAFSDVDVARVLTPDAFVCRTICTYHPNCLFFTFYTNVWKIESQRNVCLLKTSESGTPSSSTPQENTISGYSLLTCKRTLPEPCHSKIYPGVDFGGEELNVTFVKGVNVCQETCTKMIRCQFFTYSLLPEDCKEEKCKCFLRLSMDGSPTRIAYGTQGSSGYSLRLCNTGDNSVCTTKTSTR
Sequence of Plasma kallikrein (P03952 391-638 limits assumed): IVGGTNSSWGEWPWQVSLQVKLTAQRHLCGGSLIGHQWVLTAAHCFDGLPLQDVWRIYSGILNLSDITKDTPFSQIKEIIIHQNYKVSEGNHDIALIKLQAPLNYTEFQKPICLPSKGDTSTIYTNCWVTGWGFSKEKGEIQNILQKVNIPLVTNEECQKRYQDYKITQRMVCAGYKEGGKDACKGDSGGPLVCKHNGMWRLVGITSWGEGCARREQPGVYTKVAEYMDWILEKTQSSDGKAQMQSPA

[5] = system: Plasma; assay: Anticoagulant activity in human plasma assessed as concentration required to double activated partial thromboplastin time by coagulation analyser; assay type: functional
[6] = system: Plasma; assay: Anticoagulant activity in human plasma assessed as change in prothrombin time up to 40 uM by coagulation analyser; assay type: functional, cell-free

Row | Compound | Ki [1] | half-life at 10 µM [2] | further results
1 | CC(C)C[C@@H]1NC(=O)[C@H](CCC(N)=O)NC(=O)[C@H](CCCNC(=N)N)NC(=O)[C@@H]2CSCCC(=O)N3CN(CN(C3)C(=O)CCSC[C@@H](C(=O)N[C@@H](CCCNC(=N)N)C(=O)O)NC(=O)[C@H](CCCNC(=N)N)NC1=O)C(=O)CCSC[C@H](NC(=O)[C@H](N)Cc1ccc(NC(=N)N)cc1)C(=O)N[C@@H](Cc1ccccc1)C(=O)N[C@@H](CCCNC(=N)N)C(=O)N[C@@H](CC(C)C)C(=O)N1CCC[C@H]1C(=O)N2 | 15 nM | 13 h | –
2 | CC(C)C[C@@H]1NC(=O)[C@H](CCC(N)=O)NC(=O)[C@H](CCCNC(=N)N)NC(=O)[C@@H]2CSCCC(=O)N3CN(CN(C3)C(=O)CCSC[C@@H](C(=O)N[C@@H](CCCNC(=N)N)C(=O)O)NC(=O)[C@H](CCCNC(=N)N)NC1=O)C(=O)CCSC[C@H](NC(=O)[C@H](N)CCCCCN)C(=O)N[C@@H](Cc1ccccc1)C(=O)N[C@@H](CCCNC(=N)N)C(=O)N[C@@H](CC(C)C)C(=O)N1CCC[C@H]1C(=O)N2 | 6.5 nM | 2 h | –
3 | CC(C)C[C@@H]1NC(=O)[C@H](CCC(N)=O)NC(=O)[C@H](CCCNC(=N)N)NC(=O)[C@@H]2CSCCC(=O)N3CN(CN(C3)C(=O)CCSC[C@@H](C(=O)N[C@@H](CCCNC(=N)N)C(=O)O)NC(=O)[C@H](CCCNC(=N)N)NC1=O)C(=O)CCSC[C@H](NC(=O)[C@H](N)CCNC(=N)N)C(=O)N[C@@H](Cc1ccccc1)C(=O)N[C@@H](CCCNC(=N)N)C(=O)N[C@@H](CC(C)C)C(=O)N1CCC[C@H]1C(=O)N2 | 14 nM | 22 h | –
4 | CC(C)C[C@@H]1NC(=O)[C@H](CCC(N)=O)NC(=O)[C@H](CCCNC(=N)N)NC(=O)[C@@H]2CSCCC(=O)N3CN(CN(C3)C(=O)CCSC[C@@H](C(=O)N[C@@H](CCCNC(=N)N)C(=O)O)NC(=O)[C@H](CCCNC(=N)N)NC1=O)C(=O)CCSC[C@H](NC(=O)[C@H](N)CCCCNC(=N)N)C(=O)N[C@@H](Cc1ccccc1)C(=O)N[C@@H](CCCNC(=N)N)C(=O)N[C@@H](CC(C)C)C(=O)N1CCC[C@H]1C(=O)N2 | 8.8 nM | 5 h | –
5 | CC(C)C[C@@H]1NC(=O)[C@H](CCC(N)=O)NC(=O)[C@H](CCCNC(=N)N)NC(=O)[C@@H]2CSCCC(=O)N3CN(CN(C3)C(=O)CCSC[C@H](NC(=O)[C@@H](N)CCCNC(=N)N)C(=O)N[C@@H](Cc3ccc(F)cc3)C(=O)N[C@@H](CCCNC(=N)N)C(=O)N[C@@H](CC(C)C)C(=O)N3CCC[C@H]3C(=O)N2)C(=O)CCSC[C@@H](C(=O)N[C@@H](CCCNC(=N)N)C(=O)O)NC(=O)[C@H](CCCNC(=N)N)NC1=O | 0.84 nM | – | inhibition [3]: Active; inhibition [4]: Active; 2aPTT [5]: 1.6 µM; Activity [5]: Dose-dependent effect; Activity [6]: inactive
6 | CC(C)C[C@@H]1NC(=O)[C@H](CCC(N)=O)NC(=O)[C@H](CCCNC(=N)N)NC(=O)[C@@H]2CSCCC(=O)N3CN(CN(C3)C(=O)CCSC[C@H](NC(=O)[C@@H](N)CCCNC(=N)N)C(=O)N[C@@H](Cc3ccccc3)C(=O)N[C@@H](CCCNC(=N)N)C(=O)N[C@@H](CC(C)C)C(=O)N3CCC[C@H]3C(=O)N2)C(=O)CCSC[C@@H](C(=O)N[C@@H](CCCNC(=N)N)C(=O)O)NC(=O)[C@H](CCCNC(=N)N)NC1=O | – | 4 h | inhibition [3]: Active; inhibition [4]: Active; 2aPTT [5]: 2.9 µM; Activity [5]: Dose-dependent effect; Activity [6]: inactive
7 | CC(C)C[C@@H]1NC(=O)[C@H](CCC(N)=O)NC(=O)[C@H](CCCNC(=N)N)NC(=O)[C@@H]2CSCCC(=O)N3CN(CN(C3)C(=O)CCSC[C@H](NC(=O)[C@@H](N)CCCNC(=N)N)C(=O)N[C@@H](Cc3ccccc3)C(=O)N[C@@H](CCCNC(=N)N)C(=O)N[C@@H](CC(C)C)C(=O)N[C@@H](CC(N)=O)C(=O)N2)C(=O)CCSC[C@@H](C(=O)N[C@@H](CCCNC(=N)N)C(=O)N[C@@H](Cc2c[nH]c3ccccc23)C(=O)O)NC(=O)[C@H](CCCNC(=N)N)NC1=O (H-RCFRLNCRQLRCRW-OH; linker 2-7-12 via TATA) | 104 nM | – | –
8 | CC(C)C[C@@H]1NC(=O)[C@H](CCC(N)=O)NC(=O)[C@H](CCCNC(=N)N)NC(=O)[C@@H]2CSCCC(=O)N3CN(CN(C3)C(=O)CCSC[C@H](NC(=O)[C@@H](N)CCCNC(=N)N)C(=O)N[C@@H](Cc3c[nH]c4ccccc34)C(=O)N[C@@H](CCCNC(=N)N)C(=O)N[C@@H](CC(C)C)C(=O)N3CCC[C@H]3C(=O)N2)C(=O)CCSC[C@@H](C(=O)N[C@@H](CCCNC(=N)N)C(=O)N[C@@H](Cc2c[nH]c3ccccc23)C(=O)O)NC(=O)[C@H](CCCNC(=N)N)NC1=O (H-RCWRLPCRQLRCRW-OH; linker 2-7-12 via TATA) | 12 nM | – | –
9 | CC(C)C[C@@H]1NC(=O)[C@H](CCC(N)=O)NC(=O)[C@H](CCCNC(=N)N)NC(=O)[C@@H]2CSCCC(=O)N3CN(CN(C3)C(=O)CCSC[C@@H](C(=O)N[C@@H](CCCNC(=N)N)C(=O)O)NC(=O)[C@H](CCCNC(=N)N)NC1=O)C(=O)CCSC[C@H](NC(=O)[C@H](N)CCCNC(=N)N)C(=O)N[C@@H](Cc1ccccc1)C(=O)N[C@@H](CCCNC(=N)N)C(=O)N[C@@H](CC(C)C)C(=O)N1CCC[C@H]1C(=O)N2 | 34.4 nM | – | –
10 | CC(C)C[C@@H]1NC(=O)[C@H](CCC(N)=O)NC(=O)[C@H](CCCNC(=N)N)NC(=O)[C@@H]2CSCCC(=O)N3CN(CN(C3)C(=O)CCSC[C@H](NC(=O)[C@@H](N)CCCNC(=N)N)C(=O)N[C@@H](Cc3ccncc3)C(=O)N[C@@H](CCCNC(=N)N)C(=O)N[C@@H](CC(C)C)C(=O)N3CCC[C@H]3C(=O)N2)C(=O)CCSC[C@@H](C(=O)N[C@@H](CCCNC(=N)N)C(=O)N[C@@H](Cc2c[nH]c3ccccc23)C(=O)O)NC(=O)[C@H](CCCNC(=N)N)NC1=O | 57 nM | – | –
11 | CC(C)C[C@@H]1NC(=O)[C@H](CCC(N)=O)NC(=O)[C@H](CCCNC(=N)N)NC(=O)[C@@H]2CSCCC(=O)N3CN(CN(C3)C(=O)CCSC[C@H](NC(=O)[C@@H](N)CCCNC(=N)N)C(=O)N[C@@H](Cc3ccc(O)cc3)C(=O)N[C@@H](CCCNC(=N)N)C(=O)N[C@@H](CC(C)C)C(=O)N3CCC[C@H]3C(=O)N2)C(=O)CCSC[C@@H](C(=O)N[C@@H](CCCNC(=N)N)C(=O)N[C@@H](Cc2c[nH]c3ccccc23)C(=O)O)NC(=O)[C@H](CCCNC(=N)N)NC1=O (H-RCYRLPCRQLRCRW-OH; linker 2-7-12 via TATA) | 32.2 nM | – | –
